The values that follow come from patent US20170281653A1, “DERMOCOSMETIC OR PHARMACEUTICAL USE OF A COMPOSITION CONTAINING AT LEAST ONE INHIBITOR OF CERTAIN CHEMOKINES” (GREENPHARMA, priority 2014, published 2017).

In series [1] the target is T1, CCL17 (Homo sapiens, UniProt Q92583).
T1 construct: host or cells: HEK 293 cells expressing EGFP-CCR4 (and Gqi5)
T1 sequence (Q92583 24-94): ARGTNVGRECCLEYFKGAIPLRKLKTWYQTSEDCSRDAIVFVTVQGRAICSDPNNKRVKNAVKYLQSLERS
Kind of series: Inhibition of intracellular calcium response (INDO-1) induced by CCL17 in HEK 293 cells expressing CCR4. Format: cell-based. Particulars: compound concentration not given. The protocol:
In order to enable an easy recording of the responses associated to the CCR4 receptor, the cDNA which allows its expression is cloned in the plasmid pIRES (ClonTech) in fusion with the GFP protein, according to Vollmer et al. (1999), which enables to easily measure the expression of the chimeric EGFP-CCR4 receptor. HEK 293 cells (ATCC) are cultured in minimal essential medium MEM (Invitrogen) in the presence of 10% of fetal calf serum (Gibco-BRL), 100 U/mL of penicillin (Invitrogen), 100 αg/mL of streptomycin (Invitrogen) and 2 mM of L-glutamine (Invitrogen) at 37° C. in water-saturated atmosphere and containing 5% of 002. The cells are transfected according to the calcium phosphate precipitate method of Chen ant Okayama, 1986, and the cells having incorporated the expression plasmid are selected with 600 αg/mL of geneticin G-418 (PAA) for 5 weeks. The clones are selected after having been characterized by fluorescence microscopy and cytometric analysis by FACS (fluorescence assisted cell sorting). In order to enable an easy recording of the cell responses associated to the CCR4 receptor, we modify its natural coupling to the inhibition of AMPc production to a coupling to the phospholipase C which enables calcium measurements. We produce for this purpose the chimeric protein Gqi5 by directed mutagenesis of the 5 las amino acids of Gq replaced by their homologues of Gi. The cells expressing the CCR4 receptor are transfected with the plasmid pCNA3.1 in which the cDNA encoding Gqi5 has been incorporated. The recordings of calcium responses are performed the day after de transfection. The cells are loaded with a fluorescent calcium indicator, INDO-1, according to the protocol provided by the provider (Molecular probes), distributed in microplate wells and placed in a fluorescence reader-pipettor (FlexStation, Molecular devices). Intracellular calcium elevation is measured by fluorescence intensity change at 401 and 475 nm (excitation 355 nm). Measure points are recorded every 5 s for 150 s for each well. The molecules are tested in the presence of 5 nM of chemokine CCL22 (commercial). […] The response develops in a few seconds and fades with time for reaching the return in approximately 2 minutes for a chemokine CCL22 concentration of 5 to 10 nM in HEK 293 cells expressing CCR4. If the molecules to be tested are preincubated with chemokine [CK+N] and if the mixture is added to the cells, we observe a strong decrease in the amplitude of the response if the molecule to be tested is a neutralizing ligand of the chemokine. Conversely, when the neutralizing ligand is preincubated with the cells expressing the receptor [CKR+N] we observe a much smaller decrease of the amplitude of the response. Analysis of the molecules selectivity is carried out by measuring the inhibition of the response evoked by other chemokines on their respective receptors thus, in FIG. 3, the molecules have been tested on the pairs CCL2/CCR2, CCL3/CCR5, CCL17/CCR4, CCL22/CCR4, […], CXCL10/CXCR2, CXCL11/CXCR3, CXCL12/CXCR4.
For orientation: A change in cytosolic calcium serves as a functional read-out for many receptors and channels.

The target in series [2] is T2, CCL22 (Homo sapiens, UniProt O00626).
T2 sequence (O00626 25-93): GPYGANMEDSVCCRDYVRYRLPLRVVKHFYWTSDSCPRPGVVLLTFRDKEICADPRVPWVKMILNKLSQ
Kind of series: Inhibition of intracellular calcium response (INDO-1) induced by CCL22 in HEK 293 cells expressing EGFP-CCR4 and Gqi5. Format: cell-based. Details: purchased; host or cells: HEK 293 cells stably expressing EGFP-CCR4, transiently transfected with Gqi5. Particulars: HEK 293 cells expressing CCR4; 5 nM CCL22; compound concentration not given. The protocol:
In order to enable an easy recording of the responses associated to the CCR4 receptor, the cDNA which allows its expression is cloned in the plasmid pIRES (ClonTech) in fusion with the GFP protein, according to Vollmer et al. (1999), which enables to easily measure the expression of the chimeric EGFP-CCR4 receptor. HEK 293 cells (ATCC) are cultured in minimal essential medium MEM (Invitrogen) in the presence of 10% of fetal calf serum (Gibco-BRL), 100 U/mL of penicillin (Invitrogen), 100 αg/mL of streptomycin (Invitrogen) and 2 mM of L-glutamine (Invitrogen) at 37° C. in water-saturated atmosphere and containing 5% of 002. The cells are transfected according to the calcium phosphate precipitate method of Chen ant Okayama, 1986, and the cells having incorporated the expression plasmid are selected with 600 αg/mL of geneticin G-418 (PAA) for 5 weeks. The clones are selected after having been characterized by fluorescence microscopy and cytometric analysis by FACS (fluorescence assisted cell sorting). In order to enable an easy recording of the cell responses associated to the CCR4 receptor, we modify its natural coupling to the inhibition of AMPc production to a coupling to the phospholipase C which enables calcium measurements. We produce for this purpose the chimeric protein Gqi5 by directed mutagenesis of the 5 las amino acids of Gq replaced by their homologues of Gi. The cells expressing the CCR4 receptor are transfected with the plasmid pCNA3.1 in which the cDNA encoding Gqi5 has been incorporated. The recordings of calcium responses are performed the day after de transfection. The cells are loaded with a fluorescent calcium indicator, INDO-1, according to the protocol provided by the provider (Molecular probes), distributed in microplate wells and placed in a fluorescence reader-pipettor (FlexStation, Molecular devices). Intracellular calcium elevation is measured by fluorescence intensity change at 401 and 475 nm (excitation 355 nm). Measure points are recorded every 5 s for 150 s for each well. The molecules are tested in the presence of 5 nM of chemokine CCL22 (commercial). […] The response develops in a few seconds and fades with time for reaching the return in approximately 2 minutes for a chemokine CCL22 concentration of 5 to 10 nM in HEK 293 cells expressing CCR4. If the molecules to be tested are preincubated with chemokine [CK+N] and if the mixture is added to the cells, we observe a strong decrease in the amplitude of the response if the molecule to be tested is a neutralizing ligand of the chemokine. Conversely, when the neutralizing ligand is preincubated with the cells expressing the receptor [CKR+N] we observe a much smaller decrease of the amplitude of the response. The apparent affinity of the GPN136 molecules is determined by the establishment of a dose-effect relationship of the inhibition of the calcium response as presented in FIG. 2 and the results obtained are reported in table 1.

For series [3], the target named is T2, CCL22. Kind of series: Interaction affinity by fluorescence extinction of tryptophan residues of CCL22. The class given is binding. Particulars: for Fluorescence extinction of CCL22 (tryptophan intrinsic fluorescence): excitation 285 nm, emission 300-400 nm, FIG. 4; for Kd: CCL22 1.5 μm, HEPES buffer without albumin, 20° C., biphasic titration curve. The protocol: Briefly: the fluorescence measurements are carried out on a spectrofluorimeter Fluorolog 3 (JobinYvon/Spex) in a quartz cuvette. CCL22 (1.5 μm (HEPES buffer without albumin) in 1 mL final volume) is excited at 285 nm and its emission spectrum is recorded between 300 and 400 nm after each addition of an aliquot of molecule to be tested (1 μm). The measurements are carried out at 20° C. and the solutions are stirred using a magnetic stir bar. The recorded emission spectra are corrected by subtraction of the emission spectrum of the compound to be tested alone.

In series [4] the test system is Hacat cells. Kind of series: Human keratinocyte migration assay (in vitro wound-healing test in a cell monolayer, scratch, IncuCyte). Format: cell-based. Particulars: 100 ng/ml CCL22, 72 h, mitomycin 1 μg/ml, FIG. 5. An excerpt: The activity of the GPN 136 molecule has been evaluated in a human keratinocytes migration assay performed according to an in vitro wound-healing test in a cell monolayer. It is actually known that, in these chronic pathologies, an important cell migration may promote de formation of pruritus, one of the signs of dermatosis. The immortalized human keratinocytes obtained from the DKFZ (Heidelberg, Germany) are cultivated in Dulbecco medium modified by Eagle (DMEM, Invitrogen) supplemented with 10% of fetal calf serum (Gibco-BRL) and 100 U/ml of penicillin (Invitrogen), 100 μg/ml of streptomycin (Invitrogen) and 2 mM of L glutamine (Invitrogen) at 37° C. and 5% of CO2. The wells of a culture plate of 24 well are inoculated with 200,000 cells and the culture is maintained until formation of a confluent cell monolayer. The cell monolayer is then damaged by performing a linear gap (scratch) using a sterile pipette head of 0.1-10 μL. […] The effect of the molecules alone is also recorded in different wells. […]
The culture plates are arranged in the IncuCyte apparatus which records the growth on the cell monolayer by transmitted imaging in cell culture conditions (37° C., 5% CO2, water-saturated atmosphere) for 72 h. […] Healing is defined (quantified) as the ratio of the width of the scar at time t and time 0. […]

For series [5], the system named is Hacat cells. As to the kind of experiment: Metabolic activity test (WST-1 assay), in vitro cytotoxic activity. Format: cell-based, human. Particulars: 0.3 μM, 10 μM or 30 μM, 72 hours, FIG. 7. An excerpt:
The metabolic activity test is a colorimetric test (WST-1 assay—Ozyme) based on the measurement of the activity of the mitochondrial enzyme succinate-tetrazolium reductase cleaving the tetrazolium salt WST-1 ((4-[3-(4-Iodophenyl)-2-(4-nitrophenyl)-2H-5-tetrazolio]-1,3 benzene disulfonate)) in a water-soluble derivative called formazan, a dye which absorbs light in the range of 420-480 nm. Hacat cells are distributed at the rate of 200,000 cells per well in a culture plate of 24 wells, in a final volume of 500 μL. They are cultured for 24 hours before adding mitomycin C (1 μg/ml) and the compound to be tested. The culture plate is incubated for 72 hours at 37° C., 5% CO2, in water-saturated atmosphere. […] The plates are stirred to homogenize the color in the wells and the absorbance is measured at 450 nm in the multiwell-plate reader. […] As enzymatic activity requires cellular integrity, the absorbance will be all the stronger as the metabolic state of the cells is good.
In vitro cytotoxic activity: the Hacat cell cultures are treated with different concentrations of molecule: 0.3 μM (dark gray bars), 10 μM (light gray bars) or 30 μM (white bars) of GPN 136 and GPN 025 molecules. The activity of the mitochondrial enzyme formazan-reductase is recorded using the chromogenic substrate WST-1 which turns into a colored product, called formazan, detected at 450 nm.
(Formazan colour is commonly taken as a measure of viable cells.)

Like-named read-outs stand apart in the source and are kept apart here. Some results are limits rather than exact numbers.

For `O=C(OCC(O)CO)c1ccccc1O` (stereo in doubt) [GPS008505, (R)-2,3-dihydroxypropyl 2-hydroxybenzoate], the “Inhibition of calcium responses induced by CCL17 (%)” value in series [1] was determined as 0%. The “Inhibition of calcium responses induced by CCL22 (%)” value in series [2] is on record as 37 ± 6%.
As for `O=C(OCC(O)CO)c1ccccc1O` (stereo in doubt) [GPS008506, (S)-2,3-dihydroxypropyl 2-hydroxybenzoate], the “Inhibition of calcium responses induced by CCL17 (%)” value in series [1] came to 0%. The “Inhibition of calcium responses induced by CCL22 (%)” value in series [2] was 40 ± 5%.
For the compound `CC(=O)Oc1ccccc1C(=O)O` [Acetylsalicylic acid, reference compound], the “Inhibition of calcium responses induced by CCL17 (%)” value in series [1] is recorded as 0%. Besides, in series [2], the “Inhibition of calcium responses induced by CCL22 (%)” value came out at 0%.
In the case of `COc1cc2nc(N3CCC(N4CCCCC4)CC3)nc(NC3CCCCCC3)c2cc1OC` [C-021, reference compound], the “Fluorescence extinction of CCL22 (tryptophan intrinsic fluorescence)” value in series [3] is on record as “no signal”.
For orientation: Kd means the equilibrium constant for the complex coming apart. In the case of `O=C(OCC(O)CO)c1ccccc1O` (stereo not shown) [GPN136, 2,3-dihydroxypropyl 2-hydroxybenzoate], in series [1], the “Inhibition of calcium responses induced by CCL17 (%)” value is given as 0%. In addition, the Kd in series [3] (read-out: KD, second site) was 53 µM; in series [3] (read-out: KD, site of high affinity), < 0.05 µM. Further, the “Fluorescence extinction of CCL22 (tryptophan intrinsic fluorescence)” value in series [3] is “fluorescence extinction of CCL22 is observed”. Further, the “Effect on CCL22-accelerated cell migration” value in series [4] is “abolished”. For the same compound, in series [5], the “Effect on mitochondrial enzymatic activity / cellular metabolism (WST-1, 450 nm)” value is on record as “does not affect enzymatic activity”. In addition, the “Inhibition of calcium responses induced by CCL22 (%)” value in series [2] amounted to 35 ± 8%.
On to `O=C(O)c1ccccc1O` [GPN0001207], for which the “Inhibition of calcium responses induced by CCL17 (%)” value in series [1] stood at 0%. Besides, the “Inhibition of calcium responses induced by CCL22 (%)” value in series [2] is given as 0%.
As to `O=C(OCC(O)COC(=O)c1ccccc1O)c1ccccc1O` [GPS008504], the “Inhibition of calcium responses induced by CCL17 (%)” value in series [1] is recorded as 0%. For the same compound, in series [2], the “Inhibition of calcium responses induced by CCL22 (%)” value is given as 10 ± 5%.
The like results for `O=C(OC[C@@H](O)CO)c1ccccc1` [GPS008507] were, in that order, 0% and 0%.
The like results for `O=C(OC[C@H](O)CO)c1ccccc1` [GPS008508] were, in that order, 0% and 0%.
